IC50 data for three compounds are collected here from US10112933B2, “Methods and compositions for treatment of fibrosis” (Baylor College of Medicine, priority 2013, dated 2018).

SMILES strings stand for the structures.

In the test the target is recombinant Stat3 (binding to EGFR Y1068 phosphododecapeptide) (Homo sapiens, UniProt P40763). Kind of test: Stat3 SH2/pY-peptide SPR binding inhibition assay. The following applies: Stat3 500 nM, immobilized EGFR Y1068 phosphododecapeptide; read-out: SPR IC50 (competition with pY-peptide for binding to Stat3). The text has this: Data shown are representative of 2 or more experiments. The equilibrium binding levels obtained in the absence or presence of compounds were normalized (response obtained in the presence of compound÷the response obtained in the absence of compound×100), plotted against the log concentration (nM) of the compounds (panel G). The experimental points fit to a competitive binding curve that uses a four-parameter logistic equation (see exemplary methods for details). These curves were used to calculate IC50 (Table 1).
Chain of recombinant Stat3 (binding to EGFR Y1068 phosphododecapeptide) (P40763 whole entry, species assumed): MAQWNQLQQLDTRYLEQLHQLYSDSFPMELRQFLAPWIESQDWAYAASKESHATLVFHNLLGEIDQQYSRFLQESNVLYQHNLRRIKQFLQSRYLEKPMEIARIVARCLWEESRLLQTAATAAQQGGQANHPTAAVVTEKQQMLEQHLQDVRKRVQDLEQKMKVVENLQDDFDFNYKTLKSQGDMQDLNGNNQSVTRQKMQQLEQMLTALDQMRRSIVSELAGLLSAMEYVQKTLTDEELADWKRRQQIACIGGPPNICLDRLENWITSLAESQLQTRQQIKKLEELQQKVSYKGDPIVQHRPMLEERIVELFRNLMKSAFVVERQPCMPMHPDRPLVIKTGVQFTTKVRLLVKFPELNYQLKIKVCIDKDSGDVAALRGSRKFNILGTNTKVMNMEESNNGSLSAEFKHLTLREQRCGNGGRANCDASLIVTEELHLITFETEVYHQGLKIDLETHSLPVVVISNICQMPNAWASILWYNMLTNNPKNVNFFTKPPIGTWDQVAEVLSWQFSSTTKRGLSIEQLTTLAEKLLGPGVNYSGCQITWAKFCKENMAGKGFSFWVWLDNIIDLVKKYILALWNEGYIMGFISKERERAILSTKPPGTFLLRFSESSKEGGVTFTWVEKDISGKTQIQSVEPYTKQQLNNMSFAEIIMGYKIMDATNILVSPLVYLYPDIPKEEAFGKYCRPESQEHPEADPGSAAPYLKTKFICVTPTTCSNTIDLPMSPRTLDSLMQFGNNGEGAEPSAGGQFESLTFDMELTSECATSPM
Stat3 SH2/pY-peptide binding assay. Stat3 binding assays were performed at 25° C. with a BIAcore 3000 biosensor using 20 mM Tris buffer pH 8 containing 2 mM mercaptoethanol and 5% DMSO as the running buffer (Kim et al., 2005). Phosphorylated and control non-phosphorylated biotinylated EGFR derived dodecapeptides based on the sequence surrounding Y1068 (Shao et al., 2004) were immobilized on a streptavidin coated sensor chip (BIAcore inc., Picataway N.J.). The binding of Stat3 was conducted in 20 mM Tris buffer pH 8 containing 2 mM β-mercaptoethanol at a flow rate of 10 uL/min for 1-2 minute. Aliquots of Stat3 at 500 nM were premixed with compound to achieve a final concentration of 1-1,000 uM and incubated at 4° C. prior to being injected onto the sensor chip. The chip was regenerated by injecting 10 uL of 100 mM glycine at pH 1.5 after each sample injection. A control (Stat3 with DMSO but without compound) was run at the beginning and the end of each cycle (40 sample injections) to ensure that the integrity of the sensor chip was maintained throughout the cycle run. The average of the two controls was normalized to 100% and used to evaluate the effect of each compound on Stat3 binding. Responses were normalized by dividing the value at 2 min by the response obtained in the absence of compounds at 2 min and multiplying by 100. IC50 values were determined by plotting % maximum response as a function of log concentration of compound and fitting the experimental points to a competitive binding model using a four parameter logistic equation: R=Rhigh−(Rhigh−Rlow)/(1+conc/A1)^A2, where R=percent response at inhibitor concentration, Rhigh=percent response with no compound, Rlow=percent response at highest compound concentration, A2=fitting parameter (slope) and A1=IC50 (BIAevaluation Software version 4.1).
EXP IIA. Stat3/pY-peptide SPR binding inhibition assay. Stat3 pY-peptide binding assays is performed at 25° C. using a BIAcore 3000 biosensor as described (Xu et al., 2009). Briefly, phosphorylated and control nonphosphorylated biotinylated EGFR derived dodecapeptides based on the sequence surrounding Y1068 are immobilized on a streptavidin coated sensor chip (BIAcore Inc., Piscataway N.J.). […]
For the compound `O=C(O)c1ccc(C=CC(=O)c2ccc3c(c2)OCCO3)cc1` [Cpd3, 4-[3-(2,3-dihydro-1,4-benzodioxin-6-yl)-3-oxo-1-propen-1-yl]benzoic acid], the IC50 is 447 µM.
Under `CCOc1cc(C=C2C(=O)c3ccccc3C2=O)cc(Cl)c1OCc1cccc(C(=O)O)c1` [Cpd3-2, 3-({2-chloro-4-[(1,3-dioxo-1,3-dihydro-2H-inden-2-ylidene)methyl]-6-ethoxyphenoxy}methyl)benzoic acid] stands 256 µM.
The value for `CCN1C(=O)C(=Cc2ccc(-c3cc(C(=O)O)ccc3Cl)o2)C(=O)N(CC)C1=S` [Cpd30-12, 4-chloro-3-{5-[(1,3-diethyl-4,6-dioxo-2-thioxotetrahydro-5(2H)-pyrimidinylidene)methyl]-2-furyl}benzoic acid] was 114 µM.

As a reminder, the IC50 is the midpoint of a concentration-inhibition curve.
